One series deals with T1, hGIPR (Homo sapiens, UniProt P48546).
T1 construct: expressed in transfected cells; host or cells: CHO CRE-luciferase reporter cells
T1 sequence (P48546 22-466): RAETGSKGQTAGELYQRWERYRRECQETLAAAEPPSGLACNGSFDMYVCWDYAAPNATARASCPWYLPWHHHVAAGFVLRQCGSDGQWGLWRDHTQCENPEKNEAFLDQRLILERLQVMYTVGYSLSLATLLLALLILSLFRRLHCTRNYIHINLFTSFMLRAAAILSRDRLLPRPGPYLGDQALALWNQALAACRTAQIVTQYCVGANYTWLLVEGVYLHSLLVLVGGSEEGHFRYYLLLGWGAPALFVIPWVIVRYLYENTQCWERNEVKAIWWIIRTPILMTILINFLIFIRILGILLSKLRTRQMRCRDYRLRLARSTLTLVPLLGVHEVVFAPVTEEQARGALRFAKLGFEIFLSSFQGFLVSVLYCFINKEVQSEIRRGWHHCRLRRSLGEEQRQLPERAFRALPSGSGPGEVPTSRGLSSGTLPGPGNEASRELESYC
The series is described as follows: hGIPR CreLuc assay in 0.5% and 100% plasma (CHO CRE-luciferase reporter cells). The series is classed as cell-based. On the technique in general: A reporter such as luciferase makes a cellular process visible.

Series [1] is described as follows: Solubility in 0.1 M phosphate buffer at pH 7. The series is classed as physicochemical. The following applies: 0.1 M phosphate buffer at pH 7, 10 mg/mL final peptide concentration, shaking 2 hours at room temperature, peptides as TFA-salts; measured sample pH 6.5-7.0.

Usually solubility stands for the concentration that dissolves in the medium under given conditions.

Like-named read-outs stand apart in the source and are kept apart here.

For the compound `CC[C@H](C)[C@H](NC(=O)[C@H](CC(C)C)NC(=O)[C@H](Cc1c[nH]cn1)NC(=O)[C@H](CCCNC(=N)N)NC(=O)[C@@H](NC(=O)[C@H](Cc1ccccc1)NC(=O)[C@H](C)NC(=O)C(C)(C)NC(=O)[C@H](CCC(N)=O)NC(=O)[C@H](C)NC(=O)[C@H](CCC(N)=O)NC(=O)[C@H](CCCCN)NC(=O)[C@H](CCC(=O)O)NC(=O)[C@H](CC(C)C)NC(=O)C(C)(C)NC(=O)[C@@H](NC(=O)[C@H](CO)NC(=O)[C@H](CC(C)C)NC(=O)[C@H](CC(=O)O)NC(=O)[C@H](CO)NC(=O)[C@@H](NC(=O)[C@H](Cc1ccccc1)NC(=O)[C@@H](NC(=O)CNC(=O)[C@H](CCC(=O)O)NC(=O)C(C)(C)NC(=O)[C@@H](N)Cc1ccc(O)cc1)[C@@H](C)O)[C@@H](C)O)[C@@H](C)CC)C(C)C)C(=O)N[C@@H](CC(N)=O)C(=O)N[C@@H](CCCCNC(=O)CC[C@H](NC(=O)[C@@H](N)CCCCNC(=O)CC[C@H](NC(=O)CC[C@H](NC(=O)CC[C@H](NC(=O)CC[C@H](NC(=O)CC[C@H](NC(=O)CCCCCCCCCCCCCCCCCCC(=O)O)C(=O)O)C(=O)O)C(=O)O)C(=O)O)C(=O)O)C(=O)O)C(=O)NC(C)(C)C(=O)N[C@H](C(=O)N[C@@H](CCCNC(=N)N)C(=O)N[C@@H](CCC(N)=O)C(=O)N[C@@H](CCCNC(=N)N)C(=O)N[C@@H](Cc1ccc(O)cc1)C(N)=O)[C@@H](C)O` [Compound 60, Y-Aib-E-G-T-F-T-S-D-L-S-I-Aib-L-E-K-Q-A-Q-Aib-A-F-V-R-H-L-I-N-K(1,3)-Aib-T-R-Q-R-Y-NH2.C20DA-gGlu-gGlu-gGlu-gGlu-gGlu-eLys-gGlu(1,2)], the EC50 on hGIPR (hGIPR 0.5% hP (nM), 0.5% human plasma) turned out to be 0.3 nM; on hGIPR (hGIPR 100% hP (nM), 100% human plasma) it was 8 nM. Also, in series [1], the solubility at 2 h amounted to 9600 µg/mL.

For `CC[C@H](C)[C@H](NC(=O)[C@H](CC(C)C)NC(=O)[C@H](Cc1c[nH]cn1)NC(=O)[C@H](CCCNC(=N)N)NC(=O)[C@@H](NC(=O)[C@H](Cc1ccccc1)NC(=O)[C@H](C)NC(=O)[C@H](C)NC(=O)[C@H](CCC(N)=O)NC(=O)[C@H](C)NC(=O)[C@H](CCC(N)=O)NC(=O)[C@H](CCCCN)NC(=O)[C@H](CCC(=O)O)NC(=O)[C@H](CC(C)C)NC(=O)C(C)(C)NC(=O)[C@@H](NC(=O)[C@H](CO)NC(=O)[C@H](Cc1ccc(O)cc1)NC(=O)[C@H](CC(=O)O)NC(=O)[C@H](CO)NC(=O)[C@@H](NC(=O)[C@H](Cc1ccccc1)NC(=O)[C@@H](NC(=O)CNC(=O)[C@H](CCC(=O)O)NC(=O)C(C)(C)NC(=O)[C@@H](N)Cc1ccc(O)cc1)[C@@H](C)O)[C@@H](C)O)[C@@H](C)CC)C(C)C)C(=O)N[C@@H](CC(N)=O)C(=O)N[C@@H](CCCCNC(=O)[C@@H](N)CCCCNC(=O)CC[C@H](NC(=O)CC[C@H](NC(=O)CC[C@H](NC(=O)CC[C@H](NC(=O)CC[C@H](NC(=O)CC[C@H](NC(=O)CCCCCCCCCCCCCCCCC(=O)O)C(=O)O)C(=O)O)C(=O)O)C(=O)O)C(=O)O)C(=O)O)C(=O)NC(C)(C)C(=O)N[C@H](C(=O)N[C@@H](CCCNC(=N)N)C(=O)N[C@@H](CCC(N)=O)C(=O)N[C@@H](CCCNC(=N)N)C(=O)N[C@@H](Cc1ccc(O)cc1)C(N)=O)[C@@H](C)O` [Compound 61, Y-Aib-E-G-T-F-T-S-D-Y-S-I-Aib-L-E-K-Q-A-Q-A-A-F-V-R-H-L-I-N-K(1,3)-Aib-T-R-Q-R-Y-NH2.C18DA-gGlu-gGlu-gGlu-gGlu-gGlu-gGlu-eLys(1,2)], the EC50 at hGIPR (0.5% human plasma, read-out: hGIPR 0.5% hP) was determined as 0.4 nM. Moreover, the solubility at 2 h in series [1] worked out at 3700 µg/mL.

The values above are taken from patent US20250382344A1, “Soluble GLP1/GIP/NPY2 Receptor Triple Agonists” (Boehringer Ingelheim International GmH, priority 2024, published 2025).
